# From patent US20210205236A1, “THERAPEUTIC COMBINATIONS OF BOSWELLIA EXTRACT AND CANNABINOIDS” (priority 2018, published 2021)
# Read-outs that look alike come from different tables or passages of the source.
# Key:
# [1] = biological target: T1, CB1 receptor (Homo sapiens, UniProt P21554); assay: cell-based; format: cell-based
# T1 construct: expressed in transfected cells
# [2] = biological target: T1, CB1 receptor; format: cell-based
# [3] = THCA or THC 10 μM without AKBA, CP55940-induced activity = 100%
# [4] = THCA or THC 10 μM without AKBA, Table 3 data re-expressed as fold change
# T1 sequence (P21554 whole entry): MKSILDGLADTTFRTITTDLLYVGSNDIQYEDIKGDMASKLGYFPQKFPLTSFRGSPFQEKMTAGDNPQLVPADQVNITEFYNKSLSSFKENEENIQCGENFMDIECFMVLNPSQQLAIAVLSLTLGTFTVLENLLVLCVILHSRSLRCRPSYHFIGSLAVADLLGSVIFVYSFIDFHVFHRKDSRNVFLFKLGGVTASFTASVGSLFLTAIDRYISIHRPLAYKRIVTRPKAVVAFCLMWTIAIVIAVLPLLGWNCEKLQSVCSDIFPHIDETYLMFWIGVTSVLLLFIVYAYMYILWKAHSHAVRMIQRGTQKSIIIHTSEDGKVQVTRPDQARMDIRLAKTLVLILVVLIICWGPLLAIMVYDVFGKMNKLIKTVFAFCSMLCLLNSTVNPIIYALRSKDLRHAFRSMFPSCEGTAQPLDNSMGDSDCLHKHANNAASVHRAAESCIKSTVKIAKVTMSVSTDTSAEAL
structure (smiles),measurement,setting,value
"CCCCCc1cc2c(c(O)c1C(=O)O)[C@@H]1C=C(C)CC[C@H]1C(C)(C)O2 [THCA, tetrahydrocannabinolic acid]",Effect of cannabinoid on AKBA CB1R positive allosteric activity,"[1]; AKBA 50 and 100 μM, THCA 10 μM or CBD 1 μM",reduced the AKBA allosteric activity
same,Conclusions: Is CB1R antagonist effect observed?,"[1]; THCA or THC 10 μM without AKBA, % of activity data",Negative (Only treatments that the mean of three consecutive independent experiments show a positive result (CB1R activity ≤ 50%) are considered antagonists of CB1R activity)
same,Experiment 1 % of activity,[1]; [3],163.2%
same,Experiment 2 % of activity,[1]; [3],118.4%
same,Experiment 3 % of activity,[1]; [3],86.5%
same,Experiment 1 Fold change,[1]; [4],4.1 Fold change
same,Experiment 2 Fold change,[1]; [4],3.0 Fold change
same,Experiment 3 Fold change,[1]; [4],2.2 Fold change
same,Conclusions: Is CB1R antagonist effect observed?,"[1]; THCA or THC 10 μM without AKBA, positive allosteric activity, fold change data",Negative (Only treatments that the mean of three consecutive independent experiments show a positive result (CB1R activity ≥ 4-fold change) are considered positive CB1R allosteric agonists)
same,Conclusions: Is CB1R agonist effect observed?,"[2]; THCA or THC alone, 10 μM",Negative (Only treatments that the mean of three consecutive independent experiments shows a positive result: CB1R activity ≥ 2.5-fold increase or ≥ 4-fold increase are considered CB1R agonists or CB1R positive allosteric modulators)
same,Experiment 1 Fold change,"[2]; THCA or THC alone, 10 μM",1.2 Fold change
same,Experiment 2 Fold change,"[2]; THCA or THC alone, 10 μM",1.1 Fold change
same,Experiment 3 Fold change,"[2]; THCA or THC alone, 10 μM",0.8 Fold change
"CCCCCCC(C)(C)c1ccc([C@@H]2C[C@H](O)CC[C@H]2CCCO)c(O)c1 [CP, CP-55940, reference compound]",Experiment 1 Fold change,[1],2.5 Fold change
same,Experiment 2 Fold change,[1],2.5 Fold change
same,Experiment 3 Fold change,[1],2.5 Fold change
same,activity at […],[1]; read-out: Experiment 1 % of activity,100%
same,activity at […],[1]; read-out: Experiment 2 % of activity,100%
same,activity at […],[1]; read-out: Experiment 3 % of activity,100%
same,Experiment 1 Fold change,[2],2.5 Fold change
same,Experiment 2 Fold change,[2],2.5 Fold change
same,Experiment 3 Fold change,[2],2.5 Fold change
